Data as given in patent US5389627A, “Cephem compounds” (priority 1993, dated 1995).
Values after ≈ are worked out from the molar mass of the structure shown.

Legend:
Experiment in all cases: In vitro antibacterial activity, minimum inhibitory concentration
Format in all cases: cell-based
E.coli ATCC25922 = details: Escherichia coli; E.coli ATCC25922; read-out: Minimum Inhibitory Concentration (MIC)
Description: (§1) As reference compounds, Cefotaxime (CTX), Ceftazidime (CAZ) and Cefpirome (CPR) were employed.

P.rettgeri ATCC9919 = details: Providencia rettgeri; P.rettgeri ATCC9919; read-out: Minimum Inhibitory Concentration (MIC)
Description: as §1

P.aeruginosa C2027 = details: Pseudomonas aeruginosa; P.aeruginosa C2027; read-out: Minimum Inhibitory Concentration (MIC)
Description: as §1

S.Faecalis ATCC29212 = details: Enterococcus faecalis
Description: as §1

S.aureus C4036 = details: Staphylococcus aureus; S.aureus C4036; read-out: Minimum Inhibitory Concentration (MIC)
Description: as §1

S.epidermidis ATCC12228 = details: Staphylococcus epidermidis; S.epidermidis ATCC12228; read-out: Minimum Inhibitory Concentration (MIC)
Description: as §1

E.cloacae C4009 = details: Enterobacter cloacae; E.cloacae C4009; read-out: Minimum Inhibitory Concentration (MIC)
Description: as §1

MRSA C2208 = details: Staphylococcus aureus; MRSA C2208; read-out: Minimum Inhibitory Concentration (MIC)
Description: as §1

P.mirabilis ATCC25933 = details: Proteus mirabilis; P.mirabilis ATCC25933; read-out: Minimum Inhibitory Concentration (MIC)
Description: as §1

P.aeruginosa ATCC10145 = details: Pseudomonas aeruginosa; P.aeruginosa ATCC10145; read-out: Minimum Inhibitory Concentration (MIC)
Description: as §1

P.aeruginosa C4070 = details: Pseudomonas aeruginosa; P.aeruginosa C4070; read-out: Minimum Inhibitory Concentration (MIC)
Description: as §1

S.aureus Smith = details: Staphylococcus aureus; S.aureus Smith; read-out: Minimum Inhibitory Concentration (MIC)
Description: as §1

K.oxytoca C4022 = details: Klebsiella oxytoca; K.oxytoca C4022; read-out: Minimum Inhibitory Concentration (MIC)
Description: as §1

P.aeruginosa ATCC27853 = details: Pseudomonas aeruginosa; P.aeruginosa ATCC27853; read-out: Minimum Inhibitory Concentration (MIC)
Description: as §1

E.coli C4002 = details: Escherichia coli; E.coli C4002; read-out: Minimum Inhibitory Concentration (MIC)
Description: as §1

E.coli ATCC10536 = details: Escherichia coli; E.coli ATCC10536; read-out: Minimum Inhibitory Concentration (MIC)
Description: as §1

S.pyogenes ATCC 8668 = details: Streptococcus pyogenes, ATCC8668; S.pyogenes ATCC 8668; read-out: Minimum Inhibitory Concentration (MIC)
Description: as §1

S.marcescens C1052 = details: Serratia marcescens; S.marcescens C1052; read-out: Minimum Inhibitory Concentration (MIC)
Description: as §1

K.pneumoniae ATCC10031 = details: Klebsiella pneumoniae; K.pneumoniae ATCC10031; read-out: Minimum Inhibitory Concentration (MIC)
Description: as §1

S.aureus ATCC29213 = details: Staphylococcus aureus; S.aureus ATCC29213; read-out: Minimum Inhibitory Concentration (MIC)
Description: as §1

S.marcescens ATCC27117 = details: Serratia marcescens; S.marcescens ATCC27117; read-out: Minimum Inhibitory Concentration (MIC)
Description: as §1

S.pyogenes C4003 = details: Streptococcus pyogenes; S.pyogenes C4003; read-out: Minimum Inhibitory Concentration (MIC)
Description: as §1

K.pneumoniae C1040 = details: Klebsiella pneumoniae; K.pneumoniae C1040; read-out: Minimum Inhibitory Concentration (MIC)
Description: as §1

E.cloacae C4008 = details: Enterobacter cloacae; E.cloacae C4008; read-out: Minimum Inhibitory Concentration (MIC)
Description: as §1

S.typhimurium C4045 = details: Salmonella enterica; S.typhimurium C4045; read-out: Minimum Inhibitory Concentration (MIC)
Description: as §1

| SMILES | MIC (E.coli ATCC25922) | MIC (P.rettgeri ATCC9919) | MIC (P.aeruginosa C2027) | MIC (S.Faecalis ATCC29212) | MIC (S.aureus C4036) | MIC (S.epidermidis ATCC12228) | MIC (E.cloacae C4009) | MIC (MRSA C2208) | MIC (P.mirabilis ATCC25933) | MIC (P.aeruginosa ATCC10145) | MIC (P.aeruginosa C4070) | MIC (S.aureus Smith) | MIC (K.oxytoca C4022) | MIC (P.aeruginosa ATCC27853) | MIC (E.coli C4002) | MIC (E.coli ATCC10536) | MIC (S.pyogenes ATCC 8668) | MIC (S.marcescens C1052) | MIC (K.pneumoniae ATCC10031) | MIC (S.aureus ATCC29213) | other results |
| --- | --- | --- | --- | --- | --- | --- | --- | --- | --- | --- | --- | --- | --- | --- | --- | --- | --- | --- | --- | --- | --- |
| CO/N=C(\C(=O)N[C@@H]1C(=O)N2C(C(=O)[O-])=C(C[n+]3ccc4[nH]c(=NC#N)[nH]c4c3)CS[C@H]12)c1csc(N)n1 [Ex. 3, 7-β-[(Z)-2-(2-Aminothiazol-4-yl)-2-methoxyiminoacetamido]-3-[2-(1H,3H)-cyanoimine-imidazo[4,5-c]pyridiniummethyl]-3-cephem-4-carboxylate] | 0.05 µg/mL (≈ 0.0902 µM) | 0.007 µg/mL (≈ 0.0126 µM) | 6.25 µg/mL (≈ 11.3 µM) | > 100 µg/mL | 3.13 µg/mL (≈ 5.64 µM) | 0.78 µg/mL (≈ 1.41 µM) | 0.025 µg/mL (≈ 0.0451 µM) | > 100 µg/mL | 0.025 µg/mL (≈ 0.0451 µM) | 12.5 µg/mL (≈ 22.5 µM) | 12.5 µg/mL (≈ 22.5 µM) | 1.56 µg/mL (≈ 2.81 µM) | 6.25 µg/mL (≈ 11.3 µM) | 6.25 µg/mL (≈ 11.3 µM) | 0.05 µg/mL (≈ 0.0902 µM) | 0.013 µg/mL (≈ 0.0234 µM) | 0.004 µg/mL (≈ 0.00721 µM) | 0.05 µg/mL (≈ 0.0902 µM) | 0.007 µg/mL (≈ 0.0126 µM) | 3.13 µg/mL (≈ 5.64 µM) | MIC (S.marcescens ATCC27117): 0.025 µg/mL (≈ 0.0451 µM); MIC (S.pyogenes C4003): 0.004 µg/mL (≈ 0.00721 µM); MIC (K.pneumoniae C1040): 0.025 µg/mL (≈ 0.0451 µM); MIC (E.cloacae C4008): 0.013 µg/mL (≈ 0.0234 µM); MIC (S.typhimurium C4045): 0.025 µg/mL (≈ 0.0451 µM) |
| Nc1nc(/C(=N/OCC(=O)O)C(=O)N[C@@H]2C(=O)N3C(C(=O)[O-])=C(C[n+]4ccc5[nH]c(=O)[nH]c5c4)CS[C@H]23)ns1 [Ex. 8, 7-β-[(Z)-2-(5-Amino-1,2,4-thiadiazol-3-yl)-2-carboxymethoxyiminoacetamido]-3-[2-(1H,3H)-oxo-imidazo[4,5-c]pyridiniummethyl]-3-cephem-4-carboxylate] | 0.05 µg/mL (≈ 0.0869 µM) | 0.025 µg/mL (≈ 0.0434 µM) | 3.13 µg/mL (≈ 5.44 µM) | > 100 µg/mL | 1.56 µg/mL (≈ 2.71 µM) | 1.56 µg/mL (≈ 2.71 µM) | 0.013 µg/mL (≈ 0.0226 µM) | > 100 µg/mL | 0.05 µg/mL (≈ 0.0869 µM) | 3.13 µg/mL (≈ 5.44 µM) | 6.25 µg/mL (≈ 10.9 µM) | 3.13 µg/mL (≈ 5.44 µM) | 0.782 µg/mL (≈ 1.36 µM) | 3.13 µg/mL (≈ 5.44 µM) | 3.13 µg/mL (≈ 5.44 µM) | 0.013 µg/mL (≈ 0.0226 µM) | 0.1 µg/mL (≈ 0.174 µM) | 0.2 µg/mL (≈ 0.347 µM) | 0.013 µg/mL (≈ 0.0226 µM) | 0.78 µg/mL (≈ 1.36 µM) | MIC (S.marcescens ATCC27117): 0.1 µg/mL (≈ 0.174 µM); MIC (S.pyogenes C4003): 0.196 µg/mL (≈ 0.341 µM); MIC (K.pneumoniae C1040): 0.05 µg/mL (≈ 0.0869 µM); MIC (E.cloacae C4008): 0.013 µg/mL (≈ 0.0226 µM); MIC (S.typhimurium C4045): 0.05 µg/mL (≈ 0.0869 µM) |
| CO/N=C(\C(=O)N[C@@H]1C(=O)N2C(C(=O)[O-])=C(C[n+]3ccc4c(c3)NC(=C[N+](=O)[O-])N4)CS[C@H]12)c1nsc(N)n1 [Ex. 2, 7-β-[(Z)-2-(5-Amino-1,2,4-thiadiazol-3-yl)-2-methoxyiminoacetamido]-3-[2-(1H,3H)-nitromethylen-yl-imidazo[4,5-c]-pyridiniummethyl]-3-cephem-4-carboxylate] | 0.1 µg/mL (≈ 0.174 µM) | 0.025 µg/mL (≈ 0.0435 µM) | 6.25 µg/mL (≈ 10.9 µM) | > 100 µg/mL | 3.13 µg/mL (≈ 5.45 µM) | 1.56 µg/mL (≈ 2.72 µM) | 0.2 µg/mL (≈ 0.348 µM) | > 100 µg/mL | 0.1 µg/mL (≈ 0.174 µM) | 50 µg/mL (≈ 87 µM) | > 100 µg/mL | 3.13 µg/mL (≈ 5.45 µM) | 12.5 µg/mL (≈ 21.8 µM) | > 100 µg/mL | 0.1 µg/mL (≈ 0.174 µM) | 0.05 µg/mL (≈ 0.087 µM) | 0.013 µg/mL (≈ 0.0226 µM) | 0.2 µg/mL (≈ 0.348 µM) | 0.05 µg/mL (≈ 0.087 µM) | 1.56 µg/mL (≈ 2.72 µM) | MIC (S.marcescens ATCC27117): 0.2 µg/mL (≈ 0.348 µM); MIC (S.pyogenes C4003): 0.007 µg/mL (≈ 0.0122 µM); MIC (K.pneumoniae C1040): 0.05 µg/mL (≈ 0.087 µM); MIC (E.cloacae C4008): 0.05 µg/mL (≈ 0.087 µM); MIC (S.typhimurium C4045): 0.2 µg/mL (≈ 0.348 µM) |
| Nc1nc(/C(=N/OCF)C(=O)N[C@@H]2C(=O)N3C(C(=O)[O-])=C(C[n+]4ccc5[nH]c(=O)[nH]c5c4)CS[C@H]23)ns1 [Ex. 9, 7-β-[(Z)-2-(5-Amino-1,2,4-thiadiazol-3-yl)-2-fluoromethoxyiminoacetamido]-3-[2-(1H, 3H)-oxo-imidazo[4,5-c]pyridiniummethyl]-3-cephem-4-carboxylate] | 0.026 µg/mL (≈ 0.0473 µM) | 0.004 µg/mL (≈ 0.00728 µM) | 0.78 µg/mL (≈ 1.42 µM) | > 100 µg/mL | 3.13 µg/mL (≈ 5.7 µM) | 0.78 µg/mL (≈ 1.42 µM) | 0.013 µg/mL (≈ 0.0237 µM) | > 100 µg/mL | 0.025 µg/mL (≈ 0.0455 µM) | 1.56 µg/mL (≈ 2.84 µM) | 3.13 µg/mL (≈ 5.7 µM) | 1.56 µg/mL (≈ 2.84 µM) | 1.56 µg/mL (≈ 2.84 µM) | 0.78 µg/mL (≈ 1.42 µM) | 0.004 µg/mL (≈ 0.00728 µM) | 0.007 µg/mL (≈ 0.0127 µM) | 0.007 µg/mL (≈ 0.0127 µM) | 0.004 µg/mL (≈ 0.00728 µM) | 0.002 µg/mL (≈ 0.00364 µM) | 1.56 µg/mL (≈ 2.84 µM) | MIC (S.marcescens ATCC27117): 0.007 µg/mL (≈ 0.0127 µM); MIC (S.pyogenes C4003): 0.007 µg/mL (≈ 0.0127 µM); MIC (K.pneumoniae C1040): 0.004 µg/mL (≈ 0.00728 µM); MIC (E.cloacae C4008): 0.013 µg/mL (≈ 0.0237 µM); MIC (S.typhimurium C4045): 0.007 µg/mL (≈ 0.0127 µM) |
